In patent publication US11529350B2, “Tyrosine kinase non-receptor 1 (TNK1) inhibitors and uses thereof” (Sumitomo Pharma Oncology, Inc., priority 2019, dated 2022):

Key:
TNK1 [1] = target: T1, TNK1 (Homo sapiens, UniProt Q13470); assay: RBC HotSpot Kinase Assay; type: biochemical; design: purchased Reaction Biology Corp., Malvern, Pa; conditions: ATP 10 μM
T1 sequence (Q13470 1-666): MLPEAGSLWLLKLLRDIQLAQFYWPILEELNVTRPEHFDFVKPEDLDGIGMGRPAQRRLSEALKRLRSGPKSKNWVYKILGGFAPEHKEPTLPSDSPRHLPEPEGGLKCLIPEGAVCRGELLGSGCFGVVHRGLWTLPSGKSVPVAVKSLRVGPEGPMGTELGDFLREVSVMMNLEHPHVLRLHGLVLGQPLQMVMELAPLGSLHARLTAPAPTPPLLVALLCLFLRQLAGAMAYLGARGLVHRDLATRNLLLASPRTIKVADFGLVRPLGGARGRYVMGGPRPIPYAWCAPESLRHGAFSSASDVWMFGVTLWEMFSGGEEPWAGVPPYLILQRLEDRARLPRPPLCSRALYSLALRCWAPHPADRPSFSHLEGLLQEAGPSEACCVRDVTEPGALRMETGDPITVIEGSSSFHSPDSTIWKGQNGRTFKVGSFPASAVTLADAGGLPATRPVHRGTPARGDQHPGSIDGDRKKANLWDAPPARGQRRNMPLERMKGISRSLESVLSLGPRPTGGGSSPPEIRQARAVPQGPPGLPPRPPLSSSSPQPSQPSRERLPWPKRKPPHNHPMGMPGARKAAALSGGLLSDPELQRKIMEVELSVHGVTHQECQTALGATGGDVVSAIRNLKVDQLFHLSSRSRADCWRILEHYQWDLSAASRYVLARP
Protocol: The RBC HotSpot Kinase assay (Reaction Biology Corp., Malvern, Pa.) was used to evaluate the ability of test compounds to modulate (e.g., inhibit) the enzymatic activity of human TNK1 (UniProt Accession No. Q13470) in the following reaction:
Reagent: Base Reaction buffer; 20 mM Hepes (pH 7.5), 10 mM MgCl2, 1 mM EGTA, 0.02% Brij35, 0.02 mg/ml BSA, 0.1 mM Na3VO4, 2 mM DTT, 1% DMSO. Required cofactors were added individually to each kinase reaction.
Compound handling: Test compounds were dissolved in 100% DMSO to specific concentration. The serial dilution was conducted by Integra Viaflo Assist in DMSO.
1. Prepared substrate (peptide substrate, poly[Glu:Tyr] (4:1), 0.2 mg/ml; ATP 10 μM) in freshly prepared Reaction Buffer;
2. Delivered any required cofactors to the substrate solution;
3. Delivered kinase (TNK1) into the substrate solution and gently mixed;
4. Delivered compounds in 100% DMSO into the kinase reaction mixture by Acoustic technology (Echo550; nanoliter range), incubated for 20 minutes at room temperature;
5. Delivered ^33P-ATP (specific activity 10 μCi/μl) into the reaction mixture to initiate the reaction;
6. Incubated for 2 hours at room temperature;
7. Detected radioactivity by filter-binding method;
8. Kinase activity data were expressed as the percent remaining kinase activity in test samples compared to vehicle (dimethyl sulfoxide) reactions. IC50 values and curve fits were obtained using Prism (GraphPad Software).

[2] = tested on: phospho-STAT5 in L540 cells; assay: In vitro pSTAT5 assay (ELISA) in L540 cells; type: cell-based; conditions: Homo sapiens, L-540, 24 hours, normalized to cell viability, read-out: P-STAT5 Assay IC50
Protocol: The L540 cell line harbors a truncating mutation in the C-terminal regulatory region of the protein. As a consequence, TNK1 in L540 cells is constitutively active in phosphorylating key proteins, including STAT5. In TNK1 wild-type conditions (e.g., K562 CML cells), STAT5 phosphorylation is achieved in a TNK1-independent fashion. As such, reductions in phospho-STAT5 signal specific to the L540 cells are a good readout of TNK1 inhibitor function.
Methods: The in vitro pSTAT5 assay was performed with STAT5 AB (pY964/699) SimpleStep ELISA Kit (Abcam No. ab176656) according to the manufacturer's protocol. Briefly, L540 cells were grown in RPMI1640 media under standard culture conditions (10% FBS with penicillin/streptomycin). To assess test compound effects, cells were plated in 96 well plates (250,000 cells/mL) and allowed to grow overnight. Cells were subsequently treated with varying concentrations of test compound for 24 hours, before being harvested and interrogated with the STAT5 AB (pY964/699) SimpleStep ELISA Kit according to the manufacturer's protocol. Phospho-STAT5 signal was normalized to cell viability, as assessed by the CellTiter-Glo assay (Promega, Cat. No. G7570) on treated cells. TNK1 inhibitor IC50s were determined using Graphpad Prism software on normalized phospho-STAT5 measurements.

TNK1 [3] = target: T1, TNK1; assay: TNK1 NanoBRET target engagement assay (HEK293); type: cell-based; design: host or cells: HEK293; conditions: HEK293 cells, 2 hours; read-out: NanoBRET TE Assay (HEK293) IC50
Text: The NanoBRET target engagement (TE) assay (Promega, Madison, Wis.) enables the interrogation of the displacement of a tracer compound in the active site of a recombinant kinase by a test compound in the intracellular setting. The assay enables simultaneous testing of permeability, solubility, and kinase inhibition, and tests the specific interaction of test agents with a kinase of interest, here, TNK1. The assay is based on the principle of bioluminescence resonance energy transfer (BRET). In the assay, a plasmid-encoded, luciferase-tagged form of TNK1 is transfected into cells. A tracer compound is tagged with a fluorophore that fluoresces when bound to the TNK1 protein. Readout is luminescence and fluorescence. Test compounds show activity by displacing the tracer, thus disrupting BRET.
Methods: The TNK1 NanoBRET TE assays were performed according to the manufacturer's protocol. Briefly, Nanoluc-TNK1 Fusion Vector (Promega, Madison, Wis., Cat. No. NV2181) was transfected into HEK293 cells in bulk (8×10^6 cells in a T175 flask). Up to 30 hours post-transfection, cells were harvested by trypsinization, resuspended at a concentration of 2×10^5 cells/mL, and seeded in 96-well plates at 85 μL/well. A test compound and the K5 tracer were added to each well, and the cells were incubated for 2 hours. Luminescence ([…]) and fluorescence ([…]) were measured to determine a BRET ratio. IC50 values were determined from the BRET ratios using the Graphpad Prism software (GraphPad Software, San Diego, Calif.).

Row | SMILES | IC50 (TNK1 [1]) | IC50 (TNK1 [3]) | IC50 [2]
1 | COc1cc(N2CCN(C)CC2)c(Cl)cc1Nc1ncc(Br)c(Nc2cccnc2N2CCCC2=O)n1 [Example No. 23, 1-(3-((5-bromo-2-((5-chloro-2-methoxy-4-(4-methylpiperazin-1-yl)phenyl)amino)pyrimidin-4-yl)amino)pyridin-2-yl)pyrrolidin-2-one] | < 0.005 µM | – | –
2 | COc1cc(N2CCN(C)CC2)c(C)cc1Nc1ncc(Br)c(Nc2ccncc2N(C)C)n1 [Example No. 25, 5-bromo-N-(3-(dimethylamine)pyridin-4-yl)-N-(2-methoxy-5-methyl-4-(4-methylpiperazin-1-yl)phenyl)pyrimidine-2,4-diamine] | < 0.005 µM | – | –
3 | CN1CCN(c2c(Cl)cc(Nc3ncc(Cl)c(Nc4cccnc4N(C)C)n3)c3ccccc23)CC1 [compound 7, 5-chloro-N^2-(3-chloro-4-(4-methylpiperazin-1-yl)naphthalen-1-yl)-N^4-(2-(dimethylamino)pyridin-3-yl)pyrimidine-2,4-diamine] | < 0.005 µM | > 1 µM | 0.005 to 0.05 µM
4 | COc1cc(N2CCN(C)CC2)c(C)cc1Nc1ncc(I)c(Nc2cccnc2N(C)C)n1 [compound 11, N^4-(2-(dimethylamino)pyridin-3-yl)-5-iodo-N^2-(2-methoxy-5-methyl-4-(4-methylpiperazin-1-yl)phenyl)pyrimidine-2,4-diamine] | < 0.005 µM | 0.15 to 1 µM | 0.005 to 0.05 µM
5 | CN1CCN(c2c(Cl)cc(Nc3ncc(Cl)c(Nc4cccnc4N4CCCC4=O)n3)c3c2CCCO3)CC1 [Example No. 26, 1-(3-((5-chloro-2-((6-chloro-5-(4-methylpiperazin-1-yl)chroman-8-yl)amino)pyrimidin-4-yl)amino)pyridin-2-yl)pyrrolidin-2-one] | < 0.005 µM | – | –
6 | COc1cc(N2CCN(C)CC2)c(C)cc1Nc1ncc(Cl)c(Nc2cccnc2N2CCCCC2=O)n1 [Example No. 15, 1-(3-((5-chloro-2-((2-methoxy-5-methyl-4-(4-methylpiperazin-1-yl)phenyl)amino)pyrimidin-4-yl)amino)pyridin-2-yl)piperidin-2-one] | 0.015 to 0.05 µM | 0.15 to 1 µM | > 0.05 µM
7 | COc1cc(N2CCNCC2)c(Cl)cc1Nc1ncc(Cl)c(Nc2cccnc2N2CCCC2=O)n1 [Example No. 28, 1-(3-((5-chloro-2-((5-chloro-2-methoxy-4-(piperazin-1-yl)phenyl)amino)pyrimidin-4-yl)amino)pyridin-2-yl)pyrrolidin-2-one] | < 0.005 µM | – | –
8 | [2H]C([2H])([2H])N1CCN(c2cc(OC)c(Nc3ncc(Cl)c(Nc4cccnc4N4CCCC4=O)n3)cc2Cl)CC1 [Example No. 29, 1-(3-((5-chloro-2-((5-chloro-2-methoxy-4-(4-(methyl-d3)piperazin-1-yl)phenyl)amino)pyrimidin-4-yl)amino)pyridin-2-yl)pyrrolidin-2-one] | < 0.005 µM | – | –

Continued, in another order:

Row | IC50 (TNK1 [1]) | IC50 (TNK1 [3]) | SMILES | IC50 [2]
9 | < 0.005 µM | – | COc1cc(N2CCN(C)CC2)c(Cl)cc1Nc1ncc(Br)c(Nc2cccnc2N(C)C)n1 [Example No. 22, 5-bromo-N-(5-chloro-2-methoxy-4-(4-methylpiperazin-1-yl)phenyl)-N-(2-(dimethylamino)pyridin-3-yl)pyrimidine-2,4-diamine] | –
10 | < 0.005 µM | 0.15 to 1 µM | COc1cc(N2CCN(C)CC2)ccc1Nc1ncc(Cl)c(Nc2cccnc2N(C)C)n1 [Example No. 16, 5-chloro-N4-(2-(dimethylamino)pyridin-3-yl)-N2-(2-methoxy-4-(4-methylpiperazin-1-yl)phenyl)pyrimidine-2,4-diamine] | 0.005 to 0.05 µM
11 | 0.015 to 0.05 µM | > 1 µM | COc1cc(N2CCN(C)CC2)c(C)cc1Nc1ncc(C(C)=O)c(Nc2cccnc2N(C)C)n1 [Example No. 12, 1-(4-((2-(dimethylamino)pyridin-3-yl)amino)-2-((2-methoxy-5-methyl-4-(4-methylpiperazin-1-yl)phenyl)amino)pyrimidin-5-yl)ethan-1-one] | > 0.05 µM
12 | < 0.005 µM | – | [2H]C([2H])([2H])N(c1ncccc1Nc1nc(Nc2cc(C)c(N3CCN(C)CC3)cc2OC)ncc1Br)C([2H])([2H])[2H] [Example No. 27, N^4-(2-(bis(methyl-d3)amino)pyridin-3-yl)-5-bromo-N-(2-methoxy-5-methyl-4-(4-methylpiperazin-1-yl)phenyl)pyrimidine-2,4-diamine] | –
13 | 0.015 to 0.05 µM | > 1 µM | COc1cc(N2CCN(C)CC2)c(C)cc1Nc1ncc(Cl)c(Nc2cccnc2N2CCCCC2)n1 [Example No. 14, 5-chloro-N2-(2-methoxy-5-methyl-4-(4-methylpiperazin-1-yl)phenyl)-N4-(2-(piperidin-1-yl)pyridin-3-yl)pyrimidine-2,4-diamine] | > 0.05 µM
14 | < 0.005 µM | – | COc1cc(N2CCN(CCO)CC2)c(Cl)cc1Nc1ncc(Cl)c(Nc2cccnc2N2CCCC2=O)n1 [compound 30, 1-(3-((5-chloro-2-((5-chloro-4-(4-(2-hydroxyethyl)piperazin-1-yl)-2-methoxyphenyl)amino)pyrimidin-4-yl)amino)pyridin-2-yl)pyrrolidin-2-one] | –
15 | 0.005 to 0.015 µM | 0.15 to 1 µM | COc1cc(N2CCN(C)CC2)c(C)cc1Nc1ncc(C#N)c(Nc2cccnc2N(C)C)n1 [Example No. 20] | –
16 | 0.005 to 0.015 µM | 0.15 to 1 µM | COc1cc(N2CCN(C)CC2)c(Cl)cc1Nc1ncc(Cl)c(Nc2cccnc2N2CCCCC2=O)n1 [Example No. 19, 1-(3-((5-chloro-2-((5-chloro-2-methoxy-4-(4-methylpiperazin-1-yl)phenyl)amino)pyrimidin-4-yl)amino)pyridin-2-yl)piperidin-2-one] | 0.005 to 0.05 µM
17 | < 0.005 µM | – | CN1CCN(c2c(Cl)cc(Nc3ncc(Cl)c(Nc4cccnc4N4CCCC4=O)n3)c3cccnc23)CC1 [Example No. 24, 1-(3-((5-chloro-2-((7-chloro-8-(4-methylpiperazin-1-yl)quinolin-5-yl)amino)pyrimidin-4-yl)amino)pyridin-2-yl)pyrrolidin-2-one] | –
